How the values were obtained:
[1] = biological target: horse plasma butyrylcholinesterase (eqBuChE) (Equus caballus (Horse), UniProt P81908); experiment: Ellman's test, inhibition of horse plasma butyrylcholinesterase; type: biochemical
In short: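 Modified Ellman assay: compound preincubated 5 min with enzyme and DTNB in 0.1 M phosphate buffer pH 8.0 at 25° C (eqBuChE) or 36° C (hBuChE), then butyrylthiocholine added; absorbance change at 412 nm read after 5 min. Screening at 10 μM (eqBuChE) or 1 μM (hBuChE); IC50 by non-linear regression, triplicates.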

mGAT1 = mGAT1 (Mus musculus (Mouse), UniProt P31648); experiment: [3H]GABA uptake inhibition, mGAT1 in HEK293 cells; type: cell-based; details: GABA reuptake
Experimental: (§1) Exemplary compounds according to the invention were screened at the Ludwig-Maximilian University of Munich to determine the inhibitory ability towards four mouse GAT transporters (mGAT1-mGAT4). […] The biological material was stably transfected human embryonic kidney HEK293 cells, expressing genes to the appropriate transporters. The generated radioactivity was measured with a liquid scintillation counter. […] These determinations were made according to the procedure described in detail in A. Kragler, G. Höfner, K. T. Wanner, Novel parent structures for inhibitors of the murine GABA transporters mGAT3 and mGAT4, Eur. J. Pharmacol. 519 (2005) 43-47.

mGAT3 = mGAT3 (Mus musculus (Mouse), UniProt P31649); experiment: [3H]GABA uptake inhibition, mGAT3 in HEK293 cells; type: cell-based; details: GABA reuptake
Experimental: as §1

[2] = biological target: Recombinant human Aβ1-42 peptide (Homo sapiens (Human), UniProt P05067); experiment: Thioflavin T test, antiaggregation activity against beta-amyloid; type: biochemical; details: 10 μM test compound, 1.5 μM Aβ1-42; read-out: inh. Aβ aggr. % inh
In short: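 Aβ1-42 (1.5 μM final, HFIP-pretreated) aggregated in HEPES pH 7.4 with 150 mM NaCl, thioflavin T 10 μM, 3% DMSO, compound 10 μM. Fluorescence (ex 440/em 490 nm) read every 300 s with mixing; plateau values minus t=0 give % inhibition; IC50 by non-linear regression against concentration.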

Albino Swiss CD-1 mice = experiment: Rotarod test; type: in vivo
Experimental: The research was conducted at the Department of Pharmacodynamics, Faculty of Pharmacy, Jagiellonian University in Krakow. All procedures were approved by the 1st and 2nd Local Ethics Committee for Animal Experiments in Krakow (consent no. 53/2017 and 250/2019) and were performed in accordance with the applicable European Union regulation (86/609/EEC). Males of two different strains of domestic mice (Mus musculus) were used in the study: Albino Swiss CD-1 (body weight approx. 20-24 g, age approx. 6 weeks) and C57BL/6J mice (body weight approx. 18-22 g, age approx. 6 weeks). The CD-1 strain was used for the passive avoidance, spontaneous mobility and rotating rod tests, while the C57BL/6J mice were used for the Morris water maze and the Barnes' maze. The animals were kept in standard, appropriately sized cages, divided into groups with a maximum of 10 animals. The animals in the study groups in the learning phase were intraperitoneally administered the test compound 1 h before the start of the experiments (doses in the preliminary test, i.e. in the passive avoidance test: 10, 30 and 60 mg/kg), and 30 minutes later, 1 mg/kg of scopolamine subcutaneously. Two control groups were used in the tests to assess the procognitive activity of JT-3—one of them received saline and the other saline and scopolamine.
Before the experiment, the mice were adequately trained (3 days, rod revolving at 18 rpm). The device consists of a rod set in a horizontal position. It is 75 cm long, divided into 4 tracks, and is set in rotation by an electric motor. This metal rod is placed 50 cm above the table to discourage mice from jumping off it. On the day of the actual test, 24 h after the animals' last training, the mice were placed sequentially on the bar for 60 s (for each rotation speed). The rod rotation speed was set to 6, 18, and 24 rpm, respectively. The inability of the mice to stay on the rod for 60 s was considered a disorder of motor coordination.

mGAT3, sequence (P31649 whole entry): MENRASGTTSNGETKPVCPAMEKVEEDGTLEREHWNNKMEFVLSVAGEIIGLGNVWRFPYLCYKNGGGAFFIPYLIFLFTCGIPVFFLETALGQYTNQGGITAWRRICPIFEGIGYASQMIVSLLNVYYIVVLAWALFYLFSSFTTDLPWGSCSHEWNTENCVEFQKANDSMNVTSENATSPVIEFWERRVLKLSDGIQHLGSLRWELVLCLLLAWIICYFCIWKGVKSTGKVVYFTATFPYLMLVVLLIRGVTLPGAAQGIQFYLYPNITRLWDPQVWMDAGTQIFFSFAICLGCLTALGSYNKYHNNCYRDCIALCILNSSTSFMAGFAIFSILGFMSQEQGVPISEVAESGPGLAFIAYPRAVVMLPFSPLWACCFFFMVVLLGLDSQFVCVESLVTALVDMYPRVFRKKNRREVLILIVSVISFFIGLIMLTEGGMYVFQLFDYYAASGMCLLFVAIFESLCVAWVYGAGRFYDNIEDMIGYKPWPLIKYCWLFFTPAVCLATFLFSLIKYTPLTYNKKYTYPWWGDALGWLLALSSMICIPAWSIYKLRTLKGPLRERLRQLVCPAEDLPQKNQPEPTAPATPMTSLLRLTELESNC
Recombinant human Aβ1-42 peptide, sequence (P05067 672-713): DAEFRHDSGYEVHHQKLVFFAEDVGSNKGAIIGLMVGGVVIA
horse plasma butyrylcholinesterase (eqBuChE), sequence (P81908 whole entry): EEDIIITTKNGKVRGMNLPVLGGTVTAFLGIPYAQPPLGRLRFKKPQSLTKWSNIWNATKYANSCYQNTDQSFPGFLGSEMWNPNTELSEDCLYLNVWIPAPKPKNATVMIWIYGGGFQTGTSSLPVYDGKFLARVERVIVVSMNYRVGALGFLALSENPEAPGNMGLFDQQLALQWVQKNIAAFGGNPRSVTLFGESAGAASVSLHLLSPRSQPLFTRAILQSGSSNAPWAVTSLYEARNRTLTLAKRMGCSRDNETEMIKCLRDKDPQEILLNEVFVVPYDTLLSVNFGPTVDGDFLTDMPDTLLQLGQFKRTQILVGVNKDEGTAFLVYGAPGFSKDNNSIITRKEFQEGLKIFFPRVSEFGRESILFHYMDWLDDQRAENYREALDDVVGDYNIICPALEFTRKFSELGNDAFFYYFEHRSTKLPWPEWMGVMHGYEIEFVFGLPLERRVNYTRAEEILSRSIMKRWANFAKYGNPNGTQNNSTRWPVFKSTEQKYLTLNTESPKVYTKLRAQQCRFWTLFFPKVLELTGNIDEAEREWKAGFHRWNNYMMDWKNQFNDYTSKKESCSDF

O[C@H](CNCC1CC1)[C@H](Cc1ccccc1)NC1c2ccccc2-c2ccccc21 [JT-3, (2R,3S)-3-((9H-fluoren-9-yl)amino)-1-((cyclopropylmethyl)amino)-4-phenylbutan-2-ol]
IC50 [1]: 0.313 µM
pIC50 (+/−SEM) mGAT1 (mGAT1): 4.96
pIC50 (+/−SEM) mGAT3 (mGAT3): 5.13 +/− 0.04
inhibition at 10 µM [2]: 79%
influence on motor coordination (Albino Swiss CD-1 mice; 10 mg/kg): No negative influence
time kept on the bar (Albino Swiss CD-1 mice; 10 mg/kg and 30 mg/kg, speeds of 6, 18, and 24 rpm, all animals): 60 s
influence on motor coordination (Albino Swiss CD-1 mice; 30 mg/kg): No negative influence
